ChEMBL document CHEMBL4138237, “Activation of anti-oxidant Nrf2 signaling by enone analogues of curcumin” (Eur J Med Chem, 2018)
The source made the active and inactive calls.

Assays:
[1] = target: T1, Nuclear factor erythroid 2-related factor 2 (Homo sapiens) (UniProt Q16236); assay: Activation of Nrf2 (unknown origin) expressed in human HepG2 cells at 15 uM after 5 hrs by ARE-driven luciferase reporter gene assay relative to control; format: cell-based
T1 sequence (whole entry): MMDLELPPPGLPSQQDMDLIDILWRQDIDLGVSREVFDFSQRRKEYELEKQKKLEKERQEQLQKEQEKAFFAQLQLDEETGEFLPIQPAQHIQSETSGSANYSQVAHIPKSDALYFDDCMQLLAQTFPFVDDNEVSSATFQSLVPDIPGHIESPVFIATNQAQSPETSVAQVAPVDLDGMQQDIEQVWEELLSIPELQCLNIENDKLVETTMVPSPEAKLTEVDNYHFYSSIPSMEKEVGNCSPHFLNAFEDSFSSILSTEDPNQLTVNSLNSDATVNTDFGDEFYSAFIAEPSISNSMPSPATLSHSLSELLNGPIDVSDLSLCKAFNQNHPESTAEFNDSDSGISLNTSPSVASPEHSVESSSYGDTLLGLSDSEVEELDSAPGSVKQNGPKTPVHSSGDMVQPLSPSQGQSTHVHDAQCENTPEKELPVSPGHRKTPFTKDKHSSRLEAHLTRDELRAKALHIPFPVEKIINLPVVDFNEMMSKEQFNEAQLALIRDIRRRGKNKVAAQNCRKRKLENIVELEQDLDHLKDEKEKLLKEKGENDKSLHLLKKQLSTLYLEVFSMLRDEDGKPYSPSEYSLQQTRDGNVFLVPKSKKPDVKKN

[2] = target: Luciferin 4-monooxygenase (Photinus pyralis, UniProt P08659); assay: Effect on firefly luciferase activity expressed in human HepG2 cells at low concentration after 5 hrs by luminescence assay; format: ADME, cell-based; settings: hepg2, 5 h
Chain of Luciferin 4-monooxygenase (P08659 whole entry): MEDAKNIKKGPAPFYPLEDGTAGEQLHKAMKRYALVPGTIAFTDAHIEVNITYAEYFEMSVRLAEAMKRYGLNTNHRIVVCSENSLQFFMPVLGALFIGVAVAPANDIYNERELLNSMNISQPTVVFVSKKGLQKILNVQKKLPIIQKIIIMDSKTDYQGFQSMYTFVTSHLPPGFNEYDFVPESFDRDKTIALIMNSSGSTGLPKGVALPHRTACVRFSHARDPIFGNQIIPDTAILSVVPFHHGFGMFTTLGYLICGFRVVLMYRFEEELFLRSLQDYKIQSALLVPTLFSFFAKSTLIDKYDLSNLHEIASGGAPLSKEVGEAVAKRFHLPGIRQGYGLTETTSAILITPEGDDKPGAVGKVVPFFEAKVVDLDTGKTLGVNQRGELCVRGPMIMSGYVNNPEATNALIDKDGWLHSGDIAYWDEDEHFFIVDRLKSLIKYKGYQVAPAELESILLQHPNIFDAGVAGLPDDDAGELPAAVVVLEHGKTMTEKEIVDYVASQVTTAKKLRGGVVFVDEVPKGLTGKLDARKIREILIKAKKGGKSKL

Row | Structure (SMILES) | fold change (FC) [1] | Activity [2] | Activity [1]
1 | COc1cc(OC)c(OC)cc1/C=C/C(=O)/C=C/c1cc(OC)c(OC)cc1OC | 18.2 | Non-Toxic | 
2 | COc1cc(/C=C2\CCC/C(=C\c3cc(OC)cc(OC)c3)C2=O)cc(OC)c1 | 22.1 | Non-Toxic | 
3 | COc1ccc(OC)c(/C=C/C(=O)CC(=O)/C=C/c2cc(OC)ccc2OC)c1 |  | Non-Toxic | Active
4 | CN(C)c1ccc(/C=C/C(=O)CC(=O)/C=C/c2ccc(N(C)C)cc2)cc1 |  | Non-Toxic | inactive
5 | COc1cccc(/C=C/C(=O)CC(=O)/C=C/c2cccc(OC)c2)c1 |  | Non-Toxic | Active
6 | O=C1/C(=C/c2c(Cl)cccc2Cl)CCC/C1=C\c1c(Cl)cccc1Cl |  | Non-Toxic | Active
7 | COc1ccc(/C=C/C(=O)CC(=O)/C=C/c2ccc(OC)cc2OC)c(OC)c1 |  | Non-Toxic | Active
